The text below walks through data of patent US10316049B2, “Tank-binding kinase inhibitor compounds” (Gilead Sciences, Inc., priority 2015, dated 2019).

SMILES strings stand for the structures.

The target in test [1] is T1, TBK1 (Homo sapiens, UniProt Q9UHD2).
T1 construct: TBK1 and IKKε were expressed and purified as full length recombinant proteins; made in house
T1 sequence (Q9UHD2 1-729): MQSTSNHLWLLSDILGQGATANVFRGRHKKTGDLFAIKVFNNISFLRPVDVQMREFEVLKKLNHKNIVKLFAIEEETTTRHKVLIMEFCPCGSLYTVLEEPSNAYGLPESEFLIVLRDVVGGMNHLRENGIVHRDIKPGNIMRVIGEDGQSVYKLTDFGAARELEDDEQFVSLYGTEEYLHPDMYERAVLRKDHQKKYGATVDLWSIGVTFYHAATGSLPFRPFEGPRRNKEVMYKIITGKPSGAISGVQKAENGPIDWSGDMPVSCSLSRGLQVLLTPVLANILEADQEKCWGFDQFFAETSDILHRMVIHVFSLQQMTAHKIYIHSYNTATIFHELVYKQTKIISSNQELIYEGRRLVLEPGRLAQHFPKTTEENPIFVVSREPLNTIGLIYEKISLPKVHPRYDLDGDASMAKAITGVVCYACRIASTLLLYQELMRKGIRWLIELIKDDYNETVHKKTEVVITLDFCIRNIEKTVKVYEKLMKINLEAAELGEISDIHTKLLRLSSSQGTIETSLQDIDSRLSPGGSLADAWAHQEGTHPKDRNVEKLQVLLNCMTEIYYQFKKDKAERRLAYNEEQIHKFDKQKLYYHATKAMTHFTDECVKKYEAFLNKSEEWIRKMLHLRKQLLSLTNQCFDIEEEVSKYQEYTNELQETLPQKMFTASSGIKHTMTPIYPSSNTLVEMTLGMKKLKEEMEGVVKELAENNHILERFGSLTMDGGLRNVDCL
Briefly: TR-FRET enzymatic activity assay, TBK1. Also: full length recombinant TBK1 at 2.5 nM. The class given is biochemical. In outline:
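TR-FRET detected phosphorylation of a biotinylated serine/threonine peptide using 125 nM streptavidin XL665 plus europium-labelled anti-phospho antibody. Reactions with full-length recombinant kinase ran 240 min at 25 °C before EDTA quench. Values are geometric-mean IC50s (n ≥ 4) from four-parameter dose-response fits against staurosporine and DMSO controls.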
(Time-resolved FRET reads energy transfer from a long-lived donor to a nearby acceptor.)

Test [2] deals with T2, IKKε (Homo sapiens, UniProt Q14164).
T2 construct: TBK1 and IKKε were expressed and purified as full length recombinant proteins; made in house
T2 sequence (Q14164 1-716): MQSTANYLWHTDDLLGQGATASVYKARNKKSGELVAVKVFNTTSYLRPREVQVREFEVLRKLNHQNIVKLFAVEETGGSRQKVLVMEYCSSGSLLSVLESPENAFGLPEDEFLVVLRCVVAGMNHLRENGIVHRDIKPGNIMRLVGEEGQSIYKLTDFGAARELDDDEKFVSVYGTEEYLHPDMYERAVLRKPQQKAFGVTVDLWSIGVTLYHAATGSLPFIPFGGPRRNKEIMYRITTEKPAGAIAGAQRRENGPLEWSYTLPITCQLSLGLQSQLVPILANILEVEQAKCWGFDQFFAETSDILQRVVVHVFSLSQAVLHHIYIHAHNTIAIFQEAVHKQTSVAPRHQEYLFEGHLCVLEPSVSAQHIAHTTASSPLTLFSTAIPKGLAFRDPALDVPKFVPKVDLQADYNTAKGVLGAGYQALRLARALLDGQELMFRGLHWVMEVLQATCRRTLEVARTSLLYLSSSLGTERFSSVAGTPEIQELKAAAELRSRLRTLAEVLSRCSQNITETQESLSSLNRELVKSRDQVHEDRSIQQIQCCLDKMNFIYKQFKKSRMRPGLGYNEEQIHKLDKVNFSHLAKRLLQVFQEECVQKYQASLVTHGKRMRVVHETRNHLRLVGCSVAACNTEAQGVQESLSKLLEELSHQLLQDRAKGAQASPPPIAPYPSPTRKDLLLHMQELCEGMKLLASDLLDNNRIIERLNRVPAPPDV
Kind of test: TR-FRET enzymatic activity assay, IKKε. Also: full length recombinant IKKε at 0.3 nM. The class given is biochemical. Conditions: read-out: IKKϵ IC50. In outline: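 IC50 values are geometric means of at least four determinations, fitted to a four-parameter curve after normalising to 1 μM staurosporine and DMSO. Signal: Eu-cryptate anti-phospho antibody plus 125 nM streptavidin-XL665 on a biotinylated peptide. Full-length recombinant enzyme reacted 240 min, 25 °C, then EDTA-quenched.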

For the compound `Cc1n[nH]c(C(=O)N2CC[C@H](Oc3ccc(-c4cc(NC(=O)C5CC5)ncn4)cc3C#N)C(F)(F)C2)n1` [Example 34, (S)—N-(6-(3-cyano-4-((3,3-difluoro-1-(3-methyl-1H-1,2,4-triazole-5-carbonyl)piperidin-4-yl)oxy)phenyl)pyrimidin-4-yl)cyclopropanecarboxamide], the IC50 (commonly the point on the concentration scale where inhibition reaches its midpoint) in test [1] was found to be 4.2 nM; in test [2], 4.6 nM.

Consider `Cn1cc([C@@H]2C[C@H]2C(=O)Nc2cc(-c3ccc(O[C@H]4CCN(C(=O)CO)C[C@H]4F)c(C#N)c3)ncn2)cn1` [Example 143, (1,2-Trans)-N-(6-(3-cyano-4-(((3R,4S)-3-fluoro-1-(2-hydroxyacetyl)piperidin-4-yl)oxy)phenyl)pyrimidin-4-yl)-2-(1-methyl-1H-pyrazol-4-yl)cyclopropane-1-carboxamide], for which the IC50 in test [1] worked out at 19.9 nM; in test [2] it was 44.3 nM.

Take `N#CCC(=O)N1CC[C@H](Oc2ccc(-c3ccnc(NC(=O)C4CC4)c3)cc2C#N)[C@H](F)C1` [Example 12, N-(4-(3-cyano-4-(((3R,4S)-1-(2-cyanoacetyl)-3-fluoropiperidin-4-yl)oxy)phenyl)pyridin-2-yl)cyclopropanecarboxamide]: the IC50 stood at 37.3 nM in test [1] and 121 nM in test [2].

Regarding `N#CCC(=O)N1CC[C@H](Oc2ccc(-c3cc(NC(=O)C4CC4)ncn3)cc2C#N)C(F)(F)C1` [Example 153, (S)—N-(6-(3-cyano-4-((1-(2-cyanoacetyl)-3,3-difluoropiperidin-4-yl)oxy)phenyl)pyrimidin-4-yl)cyclopropanecarboxamide], the figures for the IC50 in test [1] and in test [2] were 23.6 nM and 140 nM, respectively.

As to `N#Cc1cc(-c2ccnc(NC(=O)[C@@H]3C[C@H]3C(N)=O)c2)ccc1O[C@H]1CCN(C(=O)CO)C[C@H]1F` [Example 85, (1,2-trans)-N-(4-(3-cyano-4-(((3R,4S)-3-fluoro-1-(2-hydroxyacetyl)piperidin-4-yl)oxy)phenyl)pyridin-2-yl)cyclopropane-1,2-dicarboxamide], the IC50 in test [1] was determined as 108 nM; in test [2], 115 nM.

Turning to `N#Cc1cc(-c2ccnc(NC(=O)[C@@H]3C[C@@H]3C(=O)O)c2)ccc1O[C@H]1CCN(C(=O)CO)C[C@H]1F` [Example 73, (1,2-cis)-2-((4-(3-cyano-4-(((3R,4S)-3-fluoro-1-(2-hydroxyacetyl)piperidin-4-yl)oxy)phenyl)pyridin-2-yl)carbamoyl)cyclopropane-1-carboxylic acid], the IC50 in test [1] was 740 nM; in test [2] it was greater than 1000 nM.

With `N#Cc1cc(-c2cc(NC(=O)C3CC3)ncn2)ccc1O[C@H]1CCN(C(=O)c2cnco2)C[C@H]1F` [Example 33, N-(6-(3-cyano-4-(((3R,4S)-3-fluoro-1-(oxazole-5-carbonyl)piperidin-4-yl)oxy)phenyl)pyrimidin-4-yl)cyclopropanecarboxamide], the IC50 in test [1] is 47.6 nM; in test [2], 167 nM.

For `N#Cc1cc(-c2ccnc(NC(=O)[C@H]3C[C@@H]3C(F)F)c2)ccc1OC1CCOCC1` (relative stereo) [Example 101, (1,2-trans)-N-(4-(3-cyano-4-((tetrahydro-2H-pyran-4-yl)oxy)phenyl)pyridin-2-yl)-2-(difluoromethyl)cyclopropane-1-carboxamide], the IC50 in test [1] is 96.8 nM; in test [2], greater than 1000 nM.

`N#Cc1cc(-c2ccnc(NC(=O)[C@@H]3CC3C(=O)O)c2)ccc1O[C@H]1CCN(C(=O)CO)C[C@H]1F` (stereo in doubt) [Example 84, (1,2-trans)-2-((4-(3-cyano-4-(((3R,4S)-3-fluoro-1-(2-hydroxyacetyl)piperidin-4-yl)oxy)phenyl)pyridin-2-yl)carbamoyl)cyclopropane-1-carboxylic acid]: the results for the IC50 in test [1] and in test [2] were 333 nM and 135 nM, respectively.

Consider `N#Cc1cc(-c2ccnc(NC(=O)[C@H]3C[C@H](O)C3)c2)ccc1O[C@H]1CCN(C(=O)CO)C[C@H]1F` [Example 80, (1,3-trans)-N-(4-(3-Cyano-4-(((3R,4S)-3-fluoro-1-(2-hydroxyacetyl)piperidin-4-yl)oxy)phenyl)pyridin-2-yl)-3-hydroxycyclobutane-1-carboxamide], for which the IC50 in test [1] amounted to 111 nM; in test [2], 75.2 nM.

With `CC(=O)NC1C2CC1C2C(=O)Nc1cc(-c2ccc(OC3CCOCC3)c(C#N)c2)ccn1` (centres unmarked) [Example 55, 4-acetamido-N-(4-(3-cyano-4-((tetrahydro-2H-pyran-4-yl)oxy)phenyl)pyridin-2-yl)bicyclo[1.1.1]pentane-2-carboxamide], the IC50 in test [1] and in test [2] was greater than 1000 nM throughout.

In the case of `N#Cc1cc(-c2ccnc(NC(=O)[C@@H]3C[C@H]3c3cccnc3)c2)ccc1O[C@H]1CCN(C(=O)CO)C[C@H]1F` (relative stereo) [Example 127], the IC50 in test [1] worked out at 12.2 nM; in test [2], 33.2 nM.

In the case of `CON(C)C(=O)[C@@H]1C[C@H]1C(=O)Nc1cc(-c2ccc(OC3CCOCC3)c(C#N)c2)ccn1` (relative stereo) [Example 38], the IC50 in test [1] amounted to 305 nM; in test [2], 253 nM.

Turning to `N#Cc1cc(-c2cc(NC(=O)[C@@H]3C[C@H]3c3cccnc3)ncn2)ccc1O[C@H]1CCN(C(=O)CO)C[C@H]1F` [Example 147, (1,2-Trans)-N-(6-(3-cyano-4-(((3R,4S)-3-fluoro-1-(2-hydroxyacetyl)piperidin-4-yl)oxy)phenyl)pyrimidin-4-yl)-2-(pyridin-3-yl)cyclopropane-1-carboxamide], the IC50 worked out at 15.7 nM in test [1] and 36.5 nM in test [2].

As to `N#Cc1cc(-c2ccnc(NC(=O)[C@H]3C[C@@H]3C3CC3)c2)ccc1OC1CCOCC1` (relative stereo) [Example 88, (1,2-trans)-N-(4-(3-cyano-4-((tetrahydro-2H-pyran-4-yl)oxy)phenyl)pyridin-2-yl)-[1,1′-bi(cyclopropane)]-2-carboxamide], the values for the IC50 in test [1] and in test [2] were 58.8 nM and 314 nM, respectively.

As for `N#Cc1cc(-c2ccnc(NC(=O)[C@H]3C[C@@H]3c3cccnc3)c2)ccc1O[C@H]1CCN(C(=O)CO)CC1(F)F` [Example 142, (1S,2S)—N-(4-(3-cyano-4-(((S)-3,3-difluoro-1-(2-hydroxyacetyl)piperidin-4-yl)oxy)phenyl)pyridin-2-yl)-2-(pyridin-3-yl)cyclopropane-1-carboxamide], the IC50 in test [1] is 5.7 nM; in test [2], 6 nM.

For `N#Cc1cc(-c2ccnc(NC(=O)C3CC3)c2)ccc1N1CC[C@H](F)C1` [Example 18, (S)—N-(4-(3-cyano-4-(3-fluoropyrrolidin-1-yl)phenyl)pyridin-2-yl)cyclopropanecarboxamide], the IC50 in test [1] came to 20.3 nM; in test [2], 61.3 nM.

For `N#Cc1cc(-c2ccnc(NC(=O)[C@@H]3C[C@H]3CO)c2)ccc1OC1CCOCC1` (relative stereo) [Example 42, (1,2-trans)-N-(4-(3-cyano-4-((tetrahydro-2H-pyran-4-yl)oxy)phenyl)pyridin-2-yl)-2-(hydroxymethyl)cyclopropane-1-carboxamide], the IC50 in test [1] came to 62.1 nM; in test [2], 48.2 nM.

Consider `N#Cc1cc(-c2ccnc(NC(=O)[C@H]3C[C@@H]3c3ccc(OC(F)(F)F)cc3)c2)ccc1OC1CCOCC1` (relative stereo) [Example 99, (1,2-trans)-N-(4-(3-cyano-4-((tetrahydro-2H-pyran-4-yl)oxy)phenyl)pyridin-2-yl)-2-(4-(trifluoromethoxy)phenyl)cyclopropane-1-carboxamide], for which the IC50 in test [1] and in test [2] was greater than 1000 nM throughout.
